Results reported in ChEMBL document CHEMBL3813672, “Discovery of anti-cancer activity for benzo[1,2,4]triazin-7-ones: Very strong correlation to pleurotin and thioredoxin reductase inhibition” (Bioorg Med Chem, 2016).

How the values were obtained:
[1] = tested on: EKVX; assay: Growth inhibition of human EKVX cells assessed as cell growth at 10 uM incubated for 48 hrs by sulforhodamine B assay relative to control; assay type: functional; details: read-out: Activity
[2] = Growth inhibition of human SF539 cells incubated for 48 hrs by sulforhodamine B assay; assay type: functional; details: SF-539, 48 h
[3] = tested on: U-251; assay: Growth inhibition of human U251 cells incubated for 48 hrs by sulforhodamine B assay; assay type: functional; details: U-251, 48 h
[4] = tested on: Malme-3M; assay: Growth inhibition of human MALME-3M cells incubated for 48 hrs by sulforhodamine B assay; assay type: functional
[5] = tested on: M14; assay: Growth inhibition of human M14 cells incubated for 48 hrs by sulforhodamine B assay; assay type: functional; details: M14, 48 h
[6] = tested on: MDA-MB-435; assay: Growth inhibition of human MDA-MB-435 cells incubated for 48 hrs by sulforhodamine B assay; assay type: functional; details: MDA-MB-435, 48 h
[7] = Growth inhibition of human OVCAR4 cells incubated for 48 hrs by sulforhodamine B assay; assay type: functional; details: OVCAR-4, 48 h
[8] = Growth inhibition of human OVCAR5 cells incubated for 48 hrs by sulforhodamine B assay; assay type: functional; details: OVCAR-5, 48 h
[9] = Growth inhibition of human Caki1 cells incubated for 48 hrs by sulforhodamine B assay; assay type: functional; details: CAKI-1, 48 h
[10] = tested on: SN12C; assay: Growth inhibition of human SN12C cells incubated for 48 hrs by sulforhodamine B assay; assay type: functional
[11] = Growth inhibition of human UO31 cells incubated for 48 hrs by sulforhodamine B assay; assay type: functional; details: UO-31, 48 h
[12] = Growth inhibition of human DU145 cells incubated for 48 hrs by sulforhodamine B assay; assay type: functional; details: DU-145, 48 h
[13] = tested on: MCF7; assay: Growth inhibition of human MCF7 cells incubated for 48 hrs by sulforhodamine B assay; assay type: functional; details: MCF7, 48 h
[14] = Growth inhibition of human Hs 578T cells incubated for 48 hrs by sulforhodamine B assay; assay type: functional
[15] = Selectivity ratio of IC50 for human GM00637 cells to IC50 for human MCF7 cells; assay type: ADME, cell-based; details: GM00637 cells versus MCF7 cells, read-out: Ratio IC50
[16] = Uncompetitive inhibition of rat liver thioredoxin reductase using DTNB as substrate measured for 50 mins at 5 mins intervals in presence of NADPH by Lineweaver-Burk plot analysis
[17] = tested on: K562; assay: Growth inhibition of human K562 cells incubated for 48 hrs by sulforhodamine B assay; assay type: functional; details: K562, 48 h
[18] = Growth inhibition of human RPMI8226 cells incubated for 48 hrs by sulforhodamine B assay; assay type: functional; details: RPMI-8226, 48 h
[19] = tested on: SR; assay: Growth inhibition of human SR cells incubated for 48 hrs by sulforhodamine B assay; assay type: functional
[20] = tested on: EKVX; assay: Growth inhibition of human EKVX cells incubated for 48 hrs by sulforhodamine B assay; assay type: functional
[21] = tested on: NCI-H226; assay: Growth inhibition of human NCI-H226 cells incubated for 48 hrs by sulforhodamine B assay; assay type: functional; details: NCI-H226, 48 h
[22] = tested on: NCI-H23; assay: Growth inhibition of human NCI-H23 cells incubated for 48 hrs by sulforhodamine B assay; assay type: functional; details: NCI-H23, 48 h
[23] = tested on: NCI-H522; assay: Growth inhibition of human NCI-H522 cells incubated for 48 hrs by sulforhodamine B assay; assay type: functional; details: NCI-H522, 48 h
[24] = Growth inhibition of human COLO205 cells incubated for 48 hrs by sulforhodamine B assay; assay type: functional; details: COLO 205, 48 h
[25] = Growth inhibition of human HCC2998 cells incubated for 48 hrs by sulforhodamine B assay; assay type: functional; details: HCC 2998, 48 h
[26] = read-out: pLC50 (the source's name) (converted)

`O=c1ccc2nc(C(F)(F)F)nn(-c3ccccc3)c-2c1` gave a growth at 10 µM [1] of 95.8%, a GI50 [2] of 15.8 µM and a CC50 [2, 26] of 55 µM. For the same molecule, the TGI ([2]; read-out: pTGI (converted)) was 29.5 µM, the GI50 [3] was 13.5 µM and the CC50 [3, 26] was 60.3 µM. For the same molecule, the TGI ([3]; read-out: pTGI (converted)) was 28.8 µM, the GI50 [4] was 1.82 µM and the CC50 [4, 26] was 6.03 µM. The TGI ([4]; read-out: pTGI (converted)) was 3.31 µM, the GI50 [5] was 5.75 µM and the CC50 [5, 26] was 45.7 µM. The TGI ([5]; read-out: pTGI (converted)) was 19.1 µM, the GI50 [6] was 4.57 µM and the CC50 [6, 26] was 40.7 µM. For the same molecule, the TGI ([6]; read-out: pTGI (converted)) was 16.6 µM, the GI50 [7] was 1.48 µM and the CC50 [7, 26] was 5.37 µM. For the same molecule, the TGI ([7]; read-out: pTGI (converted)) was 2.82 µM, the GI50 [8] was 15.5 µM and the CC50 [8, 26] was 55 µM. For the same molecule, the TGI ([8]; read-out: pTGI (converted)) was 28.8 µM, the GI50 [9] was 1.48 µM and the CC50 [9, 26] was 5.37 µM. For the same molecule, the TGI ([9]; read-out: pTGI (converted)) was 2.82 µM, the GI50 [10] was 7.24 µM and the CC50 [10, 26] was > 100 µM. It also gave a TGI ([10]; read-out: pTGI (converted)) of 57.5 µM, a GI50 [11] of 1.48 µM and a CC50 [11, 26] of 5.62 µM. It also gave a TGI ([11]; read-out: pTGI (converted)) of 2.88 µM, a GI50 [12] of 1.78 µM and a CC50 [12, 26] of 5.62 µM. The TGI ([12]; read-out: pTGI (converted)) was 3.16 µM, the GI50 [13] was 0.49 µM and the CC50 [13, 26] was > 100 µM. The TGI ([13]; read-out: pTGI (converted)) was 4.07 µM, the GI50 [14] was 12.3 µM and the CC50 [14, 26] was > 100 µM. The TGI ([14]; read-out: pTGI (converted)) was 81.3 µM, the selectivity ratio [15] was 3 and the Ki [16] was 0.78 µM. For the same molecule, the GI50 [17] was 2.09 µM, the CC50 [17, 26] was > 100 µM and the GI50 [18] was 4.79 µM. For the same molecule, the CC50 [18, 26] was > 100 µM, the TGI ([18]; read-out: pTGI (converted)) was 77.6 µM and the GI50 [19] was 1 µM. The CC50 [19, 26] was > 100 µM, the TGI ([19]; read-out: pTGI) was > 100 µM and the GI50 [20] was 26.9 µM. The CC50 [20, 26] was 53.7 µM, the TGI ([20]; read-out: pTGI (converted)) was 26.9 µM and the GI50 [21] was 13.2 µM. For the same molecule, the CC50 [21, 26] was 70.8 µM, the TGI ([21]; read-out: pTGI (converted)) was 30.2 µM and the GI50 [22] was 5.89 µM. It also gave a CC50 [22, 26] of 66.1 µM, a TGI ([22]; read-out: pTGI (converted)) of 22.4 µM and a GI50 [23] of 1.51 µM. It also gave a CC50 [23, 26] of 6.03 µM, a TGI ([23]; read-out: pTGI (converted)) of 3.02 µM and a GI50 [24] of 2.29 µM. The CC50 [24, 26] was > 100 µM, the TGI ([24]; read-out: pTGI (converted)) was 5.75 µM and the GI50 [25] was 15.5 µM. For the same molecule, the CC50 [25, 26] was 57.5 µM and the TGI ([25]; read-out: pTGI (converted)) was 29.5 µM.
